# In patent publication US12629419B2, “Prevention or mitigation of T-cell engaging agent-related adverse effects” (Hoffmann-La Roche Inc., priority 2020, dated 2026):
# Assays:
# Format in all cases: cell-based
# WSU DLCL2 tumor cells [1] = experiment: killing assay with PBMCs, CTV labelled WSU DLCL2 tumor cells and CD20-TCB; settings: 24 h; for CD20-TCB-mediated target cell killing: 1 nM CD20-TCB, inhibitor 0 nM to 1000 nM; for killing of B cells: WSU cells with PBMCs, CD20-TCB, fixed compound concentrations
# Protocol: FIG. 13. In vitro killing assay set-up.
# FIG. 14. […] At 24 hours, the tumor cells and PBMCs from technical replicates were pooled and stained with a LIVE/DEAD™ Near-IR dead cell dye to allow exclusion of dead CTV labelled WSU DLCL2 tumor cells by flow cytometry. Mean of n=3 donors+/−SEM.
# A similar experiment was conducted with another TCB. WSU DLCL2 cells were co-cultured together with PBMCs in the presence of 1 nM CD20-TCB (SEQ ID NOs 4-11, 24-35), and escalating sirolimus doses ranging from 0 nM to 1000 nM (FIG. 13).
# A similar experiment was conducted with another TCB. […] The killing of B cells was measured as a readout for the impact of the various compounds on TCB efficacy at 24 h (FIGS. 27 and 28). […] Lastly, the levels of cytokines (TNF-α, IFN-γ, IL-2, IL-6, IL-4, IL-10, GM-CSF and IL-1β) were analyzed by Luminex at assay endpoint to assess the impact of the different treatments on TCB-induced cytokine release (FIGS. 32 and 33).
# At 24 hours, tumor cell killing was measured by flow cytometry by exclusion of dead CTV cells. The supernatants were collected and cytokines were measured by Luminex.
# WSU DLCL2 tumor cells [2] = experiment: CD20-TCB killing assay, inhibitors added after 18 hours of activation: tumor cell killing; settings: 100 nM added at 18 h
# Protocol: (§1) FIG. 34. In vitro killing assay set-up. Cell Trace™ Violet (CTV) labelled WSU DLCL2 tumor cells were co-cultured together with PBMCs [E:T=200′000:20′000] and stimulated with CD20-TCB for 18 h.
# (§2) In this assay, CTV labelled WSU DLCL2 tumors cells were co-cultured with PBMCs in the presence of escalating doses of CD20-TCB for 18 hours.
# CD4+ and CD8+ T cells = experiment: CD20-TCB killing assay, inhibitors added after 18 hours: T cell activation; settings: 100 nM added at 18 h
# Protocol: as §1, §2
# [3] = system: MAGEA4-TCB-induced cytokine release; experiment: MAGEA4-TCB-induced cytokine release; settings: 8 nM MAGEA4-TCB, 72 hours
# Protocol: FIG. 45. Effect of escalating concentrations (c) of ruxolitinib on IFN-γ (A), IL-2 (B), TNF-α (C), GM-CSF (D), IL-6 (E), IL-1β (F), IL-8 (G), MCP-1 (H) and IL-10 (I) levels induced by 8 nM MAGEA4-TCB. At 72 hours, the supernatants were collected and cytokines were analyzed by cytometric bead array (CBA). Mean of technical replicates+/−SD for 1 representative donor.
# FIG. 47. […] At 72 hours, the supernatants were collected and cytokines were analyzed by CBA. Mean of technical replicates+/−SD for 1 representative donor.
# The effect of ruxolitinib on TCB-induced tumor cell killing and cytokine release was assessed using an additional TCB, the MAGEA4-TCB (SEQ ID NOs 37-56).
# CTV WSU tumor cells = experiment: tumor cell killing by PGLALA and CD16 universal CAR-T cells; settings: 100 nM inhibitor, 24 hours; for tumor cell killing by PGLALA CAR-T cells: PGLALA Fc anti-CD20 IgG; for tumor cell killing by CD16 CAR-T cells: wild-type Fc anti-CD20 IgG
# Protocol: FIG. 61. CTV labelled WSU tumor cell killing by PGLALA CAR-T cells (A) and CD16 CAR-T cells (B) in the presence and absence of 100 nM ruxolitinib or 100 nM sirolimus. PGLALA CAR-T cells and CD16 CAR-T cells were co-cultured together with CTV labelled WSU tumor cells (E:T=10:1) and escalating concentrations of anti-CD20 IgG with either PGLALA-Fc (for PGLALA CAR-T cells) or wild-type Fc (for CD16 CAR-T cells) in the presence and absence of 100 nM ruxolitinib (ruxo) or 100 nM sirolimus (siro). At 24 hours, the technical replicates were pooled and stained with a LIVE/DEAD™ Near-IR dye to allow exclusion of dead CTV labelled WSU DLCL2 tumor cells by flow cytometry. 1 representative donor.
# To assess the impact of JAK inhibitor ruxolitinib and mTOR inhibitor sirolimus on cytokine release induced by CAR-T cells, we conducted a killing assay where PGLALA and CD16 universal CAR-T cells (CAR-T cells with a CAR comprising an anti-P329G-Fc scFv (binding to PGLALA Fc) or CD16 (binding to wild-type Fc)) were co-cultured with CTV WSU tumor cells in the presence of escalating concentrations of PGLALA Fc and wild-type Fc anti-CD20 IgG in medium supplemented with 100 nM ruxolitinib or 100 nM sirolimus. To verify whether ruxolitinib and sirolimus interfered with tumor cell killing by CAR-T cells, we measured killing of CTV WSU tumor cells by flow cytometry at 24 hours.
# [4] = system: CD19-TCB-induced cytokine release; experiment: CD19-TCB-induced cytokine release in SUDLH-8 assay (Luminex); settings: 24 hrs
# Protocol: PBMCs were co-cultured together with CellTrace™ Violet (CTV) labelled SUDLH-8 tumor cells and escalating concentrations of CD19-TCB in the presence of the different kinase inhibitors, including also the Src inhibitor dasatinib (FIG. 64). At assay endpoint (24 hrs), the killing of CTV labelled SUDLH-8 cells was measured by flow cytometry by exclusion of the dead SUDLH-8 cells with a Live/Dead stain. […] Lastly, the levels of cytokines were measured in the supernatants of the assay to evaluate the effect of mTOR, JAK and Src inhibitors on CD19-TCB-induced cytokine release.
# (§3) At assay endpoint (24 hrs), the killing of CTV labelled SUDLH-8 cells was measured by flow cytometry by exclusion of the dead SUDLH-8 cells with a Live/Dead stain. […] Lastly, the levels of cytokines were measured in the supernatants of the assay to assess the effect of the JAK inhibitors on CD19-TCB-induced cytokine release.
# as §3, with “stain to evaluate the effect of the different mitigation approaches on CD19-TCB-dependent killing.” for “stain.”, “address” for “assess”
# [5] = 1 nM CD20-TCB, three donors, between 18 hours and 44 hours
# [6] = measured at 44 hours, escalating CD20-TCB
# [7] = 100 nM, compared with dexamethasone
compound,measurement,setting,value
"CO[C@H]1C[C@@H]2CC[C@@H](C)[C@@](O)(O2)C(=O)C(=O)N2CCCC[C@H]2C(=O)O[C@H]([C@H](C)C[C@@H]2CC[C@@H](O)[C@H](OC)C2)CC(=O)[C@H](C)/C=C(\C)[C@@H](O)[C@@H](OC)C(=O)[C@H](C)C[C@H](C)/C=C/C=C/C=C/1C [sirolimus, Sirolimus]",CD20-TCB-mediated target cell killing,WSU DLCL2 tumor cells [1],did not fully inhibit
same,killing of B cells,WSU DLCL2 tumor cells [1],did neither prevent
same,CTV labelled WSU DLCL2 tumor cell killing,WSU DLCL2 tumor cells [2]; [5],did not impact further
same,CTV labelled WSU DLCL2 tumor cell killing,WSU DLCL2 tumor cells [2]; [6],did not impact
same,T cell activation,CD4+ and CD8+ T cells; [5],did not impact further
same,T cell activation,CD4+ and CD8+ T cells; [6],did not impact
same,"levels of IFN-γ, IL-2, TNF-α, IL-8, IL-6, MCP-1 and IL-10",[3]; with increasing concentrations,reduced
same,tumor cell killing by PGLALA CAR-T cells,CTV WSU tumor cells,neither sirolimus nor ruxolitinib prevented
same,tumor cell killing by CD16 CAR-T cells,CTV WSU tumor cells,neither sirolimus nor ruxolitinib prevented
same,CD19-TCB-induced cytokine release,[4]; 100 nM inhibitor,comparable to the effect of the corticosteroid dexamethasone
same,CD19-TCB-induced IFN-γ and TNF-α,[4]; [7],comparable to the effect of dexamethasone
"N#CC[C@H](C1CCCC1)n1cc(-c2ncnc3[nH]ccc23)cn1 [ruxolitinib, Ruxolitinib]",CD20-TCB-mediated target cell killing,WSU DLCL2 tumor cells [1],did not fully inhibit
same,killing of B cells,WSU DLCL2 tumor cells [1],did neither prevent
same,CTV labelled WSU DLCL2 tumor cell killing,WSU DLCL2 tumor cells [2]; [5],did not impact further
same,CTV labelled WSU DLCL2 tumor cell killing,WSU DLCL2 tumor cells [2]; [6],did not impact
same,T cell activation,CD4+ and CD8+ T cells; [5],did not impact further
same,T cell activation,CD4+ and CD8+ T cells; [6],did not impact
same,levels of GM-CSF and IL-2,[3],not impacted
same,"levels of IFN-γ, TNF-α, IL-8, IL-6, MCP-1, IL-10 and IL-1β",[3]; with increasing concentrations,reduced
same,tumor cell killing by PGLALA CAR-T cells,CTV WSU tumor cells,neither sirolimus nor ruxolitinib prevented
same,tumor cell killing by CD16 CAR-T cells,CTV WSU tumor cells,neither sirolimus nor ruxolitinib prevented
same,"CD19-TCB-induced IFN-γ, TNF-α, IL-6 and GM-CSF release",[4]; 100 nM inhibitor,prevented
same,CD19-TCB-induced cytokine release,[4]; 100 nM inhibitor,comparable to the effect of the corticosteroid dexamethasone
same,CD19-TCB-induced IFN-γ and TNF-α,[4]; [7],comparable to the effect of dexamethasone
same,CD19-TCB-induced IL-2 and GM-CSF,[4]; [7],weaker
"CO[C@H]1C[C@@H]2CC[C@@H](C)[C@@](O)(O2)C(=O)C(=O)N2CCCC[C@H]2C(=O)O[C@H]([C@H](C)C[C@@H]2CC[C@@H](OC(=O)C(C)(CO)CO)[C@H](OC)C2)CC(=O)[C@H](C)/C=C(\C)[C@@H](O)[C@@H](OC)C(=O)[C@H](C)C[C@H](C)/C=C/C=C/C=C/1C [temsirolimus, Temsirolimus]",CD20-TCB-mediated target cell killing,WSU DLCL2 tumor cells [1],did not fully inhibit
same,killing of B cells,WSU DLCL2 tumor cells [1],did neither prevent
same,CTV labelled WSU DLCL2 tumor cell killing,WSU DLCL2 tumor cells [2]; [5],did not impact further
same,CTV labelled WSU DLCL2 tumor cell killing,WSU DLCL2 tumor cells [2]; [6],did not impact
same,T cell activation,CD4+ and CD8+ T cells; [5],did not impact further
same,T cell activation,CD4+ and CD8+ T cells; [6],did not impact
same,"levels of IFN-γ, IL-2, TNF-α, IL-8, IL-6, MCP-1 and IL-10",[3]; with increasing concentrations,reduced
same,CD19-TCB-induced cytokine release,[4]; 100 nM inhibitor,comparable to the effect of the corticosteroid dexamethasone
same,CD19-TCB-induced IFN-γ and TNF-α,[4]; [7],comparable to the effect of dexamethasone
"CO[C@H]1C[C@@H]2CC[C@@H](C)[C@@](O)(O2)C(=O)C(=O)N2CCCC[C@H]2C(=O)O[C@H]([C@H](C)C[C@@H]2CC[C@@H](OCCO)[C@H](OC)C2)CC(=O)[C@H](C)/C=C(\C)[C@@H](O)[C@@H](OC)C(=O)[C@H](C)C[C@H](C)/C=C/C=C/C=C/1C [everolimus, Everolimus]",CD20-TCB-mediated target cell killing,WSU DLCL2 tumor cells [1],did not fully inhibit
same,killing of B cells,WSU DLCL2 tumor cells [1],did neither prevent
same,CTV labelled WSU DLCL2 tumor cell killing,WSU DLCL2 tumor cells [2]; [5],did not impact further
same,CTV labelled WSU DLCL2 tumor cell killing,WSU DLCL2 tumor cells [2]; [6],did not impact
same,T cell activation,CD4+ and CD8+ T cells; [5],did not impact further
same,T cell activation,CD4+ and CD8+ T cells; [6],did not impact
same,"levels of IFN-γ, IL-2, TNF-α, IL-8, IL-6, MCP-1 and IL-10",[3]; with increasing concentrations,reduced
same,CD19-TCB-induced cytokine release,[4]; 100 nM inhibitor,comparable to the effect of the corticosteroid dexamethasone
same,CD19-TCB-induced IFN-γ and TNF-α,[4]; [7],comparable to the effect of dexamethasone
